From paper PMC10745882, “Investigation of Drug-Interaction Potential for Arthritis Dietary Supplements: Chondroitin Sulfate, Glucosamine, and Methylsulfonylmethane” (Molecules, 2023)

How the values were obtained:
CYP3A4(T) = target: T1, CYP3A4(T) (Homo sapiens, UniProt P08684); assay: CYP inhibition assay in human liver microsomes (LC-MS/MS cocktail), testosterone to 6-β-OH-Testosterone; assay type: in vitro ADME
T1 construct: Pooled human liver microsomes were purchased from BD Gentest; tissue BD Gentest; host or cells: pooled human liver microsomes
T1 sequence (P08684 whole entry): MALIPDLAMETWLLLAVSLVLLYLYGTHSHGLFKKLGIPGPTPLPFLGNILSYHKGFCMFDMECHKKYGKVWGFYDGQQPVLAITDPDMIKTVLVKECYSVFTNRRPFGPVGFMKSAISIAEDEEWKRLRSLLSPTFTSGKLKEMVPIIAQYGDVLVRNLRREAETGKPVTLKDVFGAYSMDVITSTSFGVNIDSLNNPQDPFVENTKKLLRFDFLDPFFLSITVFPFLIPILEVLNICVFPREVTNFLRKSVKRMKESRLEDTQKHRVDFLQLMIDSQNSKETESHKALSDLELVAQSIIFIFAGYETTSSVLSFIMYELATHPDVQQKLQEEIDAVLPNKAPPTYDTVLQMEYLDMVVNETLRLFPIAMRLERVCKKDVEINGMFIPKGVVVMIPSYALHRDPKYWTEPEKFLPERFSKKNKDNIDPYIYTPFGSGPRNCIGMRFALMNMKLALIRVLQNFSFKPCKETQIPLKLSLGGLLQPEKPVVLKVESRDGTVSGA
Experimental: (§1) For the experimental method, the reference method was used. Briefly, incubation mixtures were composed of 0.5 mg/mL human liver microsomes; varying concentrations of CS in DW (0.1, 0.3, 1, 3, 10, 30, 100, and 200 µM) or MSM in DW (0.1, 0.3, 1, 3, 10, 30, 100, 300, and 1000 µM) or GCS in DMSO (0.1, 0.3, 1, 3, 10, 30, 100, 300, and 1000 µM); a substrate mixture in DMSO (40 µM phenacetin for CYP1A2; 2.5 µM coumarin for CYP2A6; 80 µM bupropion for CYP2B6; 10 µM diclofenac for CYP2C9; 80 µM [±]-mephenytoin for CYP2C19; 5 µM dextromethorphan for CYP2D6; 2.5 µM midazolam and 30 µM testosterone for CYP3A4); and an NADPH generating system (NGS; 0.1 M glucose-6-phosphate, 10 mg/mL β-NADP^+, and 1 U/mL glucose-6-phosphate dehydrogenase) in a total volume of 200 µL potassium phosphate buffer (0.1 M, pH 7.4). The reaction mixture, excluding NGS, underwent pre-incubation at 37 °C for 5 min, followed by further incubation with NGS for 30 min in a water bath. Well-established selective CYP inhibitors were employed as positive controls (40 µM ketoconazole for CYP3A4, 50 µM furafyllin for CYP1A2, 10 µM quinidine for CYP2D6, 125 µM ticlopidine for CYP2C19 and CYP2B6, 10 µM 8-methoxsalen for CYP2A6, and 10 µM sulfaphenazole for CYP2C9). Post incubation, the reaction was halted by adding 50 µL ice-cold 1% formic acid acetonitrile. After centrifugation at 13,200 rpm for 5 min, the supernatant was collected from the sample and subjected to analysis via an LC-MS/MS system. All experiments were performed in triplicate.
(§2) For the experimental method, the reference method was used. The LC-MS/MS system utilized in this study consisted of an Agilent 1260 binary pump HPLC system coupled with the Agilent 6460 Triple Quadrupole mass spectrometer (Agilent Technologies, Santa Clara, CA, USA), featuring an electrospray ionization source. Chromatographic separation was achieved using a Fortis C8 column (2.1 × 100 mm, 5.0 µm; Fortis Technologies Ltd., Neston, UK). The HPLC mobile phases comprised (A) 0.1% formic acid and (B) 0.1% formic acid in 90% acetonitrile. A gradient elution method was employed with an initial solvent B concentration of 15% and a flow rate of 0.25 mL/min. […] The total run time was 11.0 min, and the injection volume was 5 µL. Mass detection was conducted in the positive ion mode using multiple reaction monitoring (MRM). Specific MRM transitions for each analyte are detailed in Table S4.

CYP2E1 = system: CYP2E1; set-up: method as in PMID 20408500; settings: related report; cited from earlier work
CYP2C9 = target: T2, CYP2C9 (Homo sapiens, UniProt P11712); assay: CYP inhibition assay in human liver microsomes (LC-MS/MS cocktail), diclofenac to 4-OH-diclofenac; assay type: in vitro ADME
T2 construct: Pooled human liver microsomes were purchased from BD Gentest; tissue BD Gentest; host or cells: pooled human liver microsomes
T2 sequence (P11712 whole entry): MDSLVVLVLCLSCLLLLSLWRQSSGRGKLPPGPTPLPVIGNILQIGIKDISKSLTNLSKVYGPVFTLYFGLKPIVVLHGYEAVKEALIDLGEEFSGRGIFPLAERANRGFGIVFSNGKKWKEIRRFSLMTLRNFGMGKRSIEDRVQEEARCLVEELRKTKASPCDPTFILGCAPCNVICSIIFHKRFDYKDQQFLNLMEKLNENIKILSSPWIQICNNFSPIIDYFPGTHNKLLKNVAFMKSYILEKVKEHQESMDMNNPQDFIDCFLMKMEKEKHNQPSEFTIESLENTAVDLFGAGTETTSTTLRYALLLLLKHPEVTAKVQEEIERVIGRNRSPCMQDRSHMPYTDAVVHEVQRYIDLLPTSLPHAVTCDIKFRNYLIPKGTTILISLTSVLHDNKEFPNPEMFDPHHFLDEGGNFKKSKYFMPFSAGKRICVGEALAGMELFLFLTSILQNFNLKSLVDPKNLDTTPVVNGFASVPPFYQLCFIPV
Experimental: as §1, §2

[1] = set-up: method as in PMID 16942821, PMID 37489348, PMID 31331587; settings: typical doses as monotherapy; cited from earlier work
CYP2D6 = target: T3, CYP2D6 (Homo sapiens, UniProt P10635); assay: CYP inhibition assay in human liver microsomes (LC-MS/MS cocktail), dextromethorphan to dextrorphan; assay type: in vitro ADME
T3 construct: Pooled human liver microsomes were purchased from BD Gentest; tissue BD Gentest; host or cells: pooled human liver microsomes
T3 sequence (P10635 whole entry): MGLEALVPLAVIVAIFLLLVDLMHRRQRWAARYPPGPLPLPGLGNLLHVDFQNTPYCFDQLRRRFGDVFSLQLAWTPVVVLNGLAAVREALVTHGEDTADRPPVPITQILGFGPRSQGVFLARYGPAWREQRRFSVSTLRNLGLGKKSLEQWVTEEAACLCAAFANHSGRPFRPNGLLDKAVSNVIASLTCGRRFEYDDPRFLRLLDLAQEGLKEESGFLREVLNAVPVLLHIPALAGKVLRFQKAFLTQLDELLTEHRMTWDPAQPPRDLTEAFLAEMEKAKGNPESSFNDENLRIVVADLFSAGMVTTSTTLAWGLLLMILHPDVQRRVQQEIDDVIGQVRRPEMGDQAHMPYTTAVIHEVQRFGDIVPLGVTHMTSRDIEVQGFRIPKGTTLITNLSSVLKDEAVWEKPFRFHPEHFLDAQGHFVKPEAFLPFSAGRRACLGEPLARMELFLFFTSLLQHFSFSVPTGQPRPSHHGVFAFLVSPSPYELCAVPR
Experimental: as §1, §2

CYP1A2 = target: T4, CYP1A2 (Homo sapiens, UniProt P05177); assay: CYP inhibition assay in human liver microsomes (LC-MS/MS cocktail), phenacetin to acetaminophen; assay type: in vitro ADME
T4 construct: Pooled human liver microsomes were purchased from BD Gentest; tissue BD Gentest; host or cells: pooled human liver microsomes
T4 sequence (P05177 1-516): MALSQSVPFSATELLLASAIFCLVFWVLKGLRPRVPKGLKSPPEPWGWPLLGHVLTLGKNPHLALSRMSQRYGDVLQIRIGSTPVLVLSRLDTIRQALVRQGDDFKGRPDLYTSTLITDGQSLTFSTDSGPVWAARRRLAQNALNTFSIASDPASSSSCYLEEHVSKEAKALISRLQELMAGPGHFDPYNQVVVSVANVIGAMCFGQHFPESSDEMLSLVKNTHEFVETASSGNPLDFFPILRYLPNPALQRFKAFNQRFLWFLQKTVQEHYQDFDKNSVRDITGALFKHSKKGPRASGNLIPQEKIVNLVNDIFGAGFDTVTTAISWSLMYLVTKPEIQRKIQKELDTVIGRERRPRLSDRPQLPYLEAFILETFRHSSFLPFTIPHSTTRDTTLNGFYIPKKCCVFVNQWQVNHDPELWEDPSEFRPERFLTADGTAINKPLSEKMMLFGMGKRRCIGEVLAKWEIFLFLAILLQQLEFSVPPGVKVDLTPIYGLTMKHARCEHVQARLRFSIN
Experimental: as §1, §2

[2] = set-up: method as in doi:10.4172/2155-9600.1000748, PMID 16168682, PMID 19912983; settings: common daily dose 1500 mg/day; cited from earlier work
[3] = set-up: method as in PMID 25417766; settings: rats; 1:4 (paracetamol:GCS) ratio; cited from earlier work

SMILES: N[C@H]1C(O)O[C@H](CO)[C@@H](O)[C@@H]1O (stereo partly shown) [GCS, glucosamine]
- Remaining Activities (% of Control, n = 3) (CYP3A4(T); test substance 0.3 μM): 92.8 ± 0.6 % of Control
- Remaining Activities (% of Control, n = 3) (CYP3A4(T); test substance 1 μM): 92.4 ± 0.9 % of Control
- Remaining Activities (% of Control, n = 3) (CYP3A4(T); test substance 3 μM): 91.1 ± 3.1 % of Control
- Remaining Activities (% of Control, n = 3) (CYP3A4(T); test substance 10 μM): 91.7 ± 4.4 % of Control
- Remaining Activities (% of Control, n = 3) (CYP3A4(T); test substance 30 μM): 91.8 ± 3.0 % of Control
- Remaining Activities (% of Control, n = 3) (CYP3A4(T); test substance 100 μM): 84.8 ± 7.8 % of Control
- Remaining Activities (% of Control, n = 3) (CYP3A4(T); test substance 300 μM): 82.1 ± 3.4 % of Control
- Remaining Activities (% of Control, n = 3) (CYP3A4(T); test substance 1000 μM): 80.0 ± 6.6 % of Control
- inhibitory effect on CYP2E1 (CYP2E1): no inhibitory effect
- Remaining Activities (% of Control, n = 3) (CYP2C9; test substance 0.3 μM): 115.5 ± 15.2 % of Control
- Remaining Activities (% of Control, n = 3) (CYP2C9; test substance 1 μM): 108.7 ± 1.7 % of Control
- Remaining Activities (% of Control, n = 3) (CYP2C9; test substance 3 μM): 109.2 ± 2.4 % of Control
- Remaining Activities (% of Control, n = 3) (CYP2C9; test substance 10 μM): 104.0 ± 2.3 % of Control
- Remaining Activities (% of Control, n = 3) (CYP2C9; test substance 30 μM): 105.8 ± 2.7 % of Control
- Remaining Activities (% of Control, n = 3) (CYP2C9; test substance 100 μM): 101.2 ± 4.8 % of Control
- Remaining Activities (% of Control, n = 3) (CYP2C9; test substance 300 μM): 97.2 ± 2.8 % of Control
- Remaining Activities (% of Control, n = 3) (CYP2C9; test substance 1000 μM): 91.1 ± 10.1 % of Control
- adverse effects in clinical trials [1]: do not exhibit significant adverse effects
- Remaining Activities (% of Control, n = 3) (CYP2D6; test substance 0.3 μM): 107.6 ± 7.4 % of Control
- Remaining Activities (% of Control, n = 3) (CYP2D6; test substance 1 μM): 104.9 ± 1.0 % of Control
- Remaining Activities (% of Control, n = 3) (CYP2D6; test substance 3 μM): 106.2 ± 3.7 % of Control
- Remaining Activities (% of Control, n = 3) (CYP2D6; test substance 10 μM): 101.6 ± 0.5 % of Control
- Remaining Activities (% of Control, n = 3) (CYP2D6; test substance 30 μM): 100.4 ± 1.4 % of Control
- Remaining Activities (% of Control, n = 3) (CYP2D6; test substance 100 μM): 102.6 ± 1.7 % of Control
- Remaining Activities (% of Control, n = 3) (CYP2D6; test substance 300 μM): 100.6 ± 1.3 % of Control
- Remaining Activities (% of Control, n = 3) (CYP2D6; test substance 1000 μM): 99.5 ± 4.8 % of Control
- Remaining Activities (% of Control, n = 3) (CYP1A2; test substance 0.3 μM): 110.2 ± 20.5 % of Control
- Remaining Activities (% of Control, n = 3) (CYP1A2; test substance 1 μM): 103.1 ± 1.5 % of Control
- Remaining Activities (% of Control, n = 3) (CYP1A2; test substance 3 μM): 101.1 ± 7.5 % of Control
- Remaining Activities (% of Control, n = 3) (CYP1A2; test substance 10 μM): 94.2 ± 1.8 % of Control
- Remaining Activities (% of Control, n = 3) (CYP1A2; test substance 30 μM): 94.1 ± 3.0 % of Control
- Remaining Activities (% of Control, n = 3) (CYP1A2; test substance 100 μM): 97.2 ± 3.7 % of Control
- Remaining Activities (% of Control, n = 3) (CYP1A2; test substance 300 μM): 86.7 ± 2.8 % of Control
- Remaining Activities (% of Control, n = 3) (CYP1A2; test substance 1000 μM): 82.5 ± 12.0 % of Control
- maximum plasma concentrations [2]: ~9 µM
- paracetamol's AUC when co-administered with GCS [3]: increase
- paracetamol's maximum plasma concentration when co-administered with GCS [3]: increase
